Laboratory results: patent US20230098202A1 (priority 2020, published 2023)
Where two headings read alike, the source gives them in different places.

Legend:
Phytophthora infestans [1] = details: n = 10
Rhizoctonia solani = type: cell-based
Puccinia sorghi [2] = assay: In planta validation: Puccinia sorghi infection of corn seedlings; type: in vivo, Puccinia sorghi on corn; details: controlled growth conditions, growth rooms, spraying
Experimental: • 1) Use: 120×80×80 mm pots, standard garden soil with fertilizer and corn seeds of a rust sensitive variety. • 2) Put pots in a tray and fill the pots with the soil to the top. • 3) Make a small grove for the seeds. • 4) Plant about 10 seeds of corn in each pot. • 5) Cover the seeds with additional soil. • 6) Add water into the tray—about 100 ml for each pot (fill the tray 3 times). • 7) Grow the corn for 8 days in growth room at 22° C. (until the second leaf is emerged). B. Preparation of Spore Suspension [from Corn Leaves] for Inoculation • 1) Insert 20 infected corn leaves with spores into a sterile 50-ml tube. • 2) Add 50 ml of cold 0.05% Tween® 20 solution. • 3) Insert the tube into a sealed, ice cold plastic box. • 4) Shake the box using a shaker for 15 min at 3000 RPM. • 5) Transfer the suspension (without the leaves) into a clean sterile 50-ml tube. • 6) Filter the spore suspension through 16 layers of gauze into another sterile 50-ml tube. • 7) Keep the tube with the spore suspension on ice. • 8) Wash and concentrate the spores on a 5-micron membrane filter. Wash 4 times with ice-cold sterile water and collect the spores in 0.05% Tween® 20 solution. • 9) For inoculation, dilute the spore suspension to get spore concentration of 8000 spores/ml using cold 0.05% Tween® 20 solution. […]

Pseudomonas syringae = type: cell-based
Puccinia sorghi [3] = type: cell-based; details: 25 ppm
Phytophthora infestans [4] = type: cell-based; details: Phytophthora infestans on tomato leaf discs; activity grade x repeats/12 x100
Pythium aphanidermatum = type: cell-based
Puccinia triticina = assay: In planta validation in wheat infected with leaf rust, growth chamber; type: in vivo, Puccinia triticina on wheat; details: sprayed a day before inoculation

SMILES: CN[C@H]1CCC(c2ccc(Cl)c(Cl)c2)c2ccccc21.Cl (stereo in doubt) [Compound 3, (1S,4R)-4-(3,4-dichlorophenyl)-N-methyl-1,2,3,4-tetrahydronaphthalen-1-aminium chloride]
- Mean leaf surface area (0-3) covered by Phytophthora (Phytophthora infestans [1]; Exp. 487, 200 ppm in 0.1% base (pH = 6) + Silwet 0.005%, not treated 2.6): 0.7
- Mean leaf surface area (0-3) covered by Phytophthora (Phytophthora infestans [1]; Exp. 487, 200 ppm in DMSO 6% + Silwet 0.005%, 0=clear, 3=high coverage, not treated 2.6): 0.1
- Mean leaf surface area (0-3) covered by Phytophthora (Phytophthora infestans [1]; Exp. 492, 200 ppm in 0.1% base (pH = 6) + Silwet 0.005%, not treated 3): 0.3
- Mean leaf surface area (0-3) covered by Phytophthora (Phytophthora infestans [1]; Exp. 492, 200 ppm in DMSO 6% + Silwet 0.005%, not treated 3): 0.4
- Mean leaf surface area (0-3) covered by Phytophthora (Phytophthora infestans [1]; Exp. 500, 200 ppm in 0.1% base (pH = 6) without Silwet, not treated 3): 0.8

SMILES: C[C@H]1[C@H](c2ccc(O)c(O)c2)c2cc(O)c(O)cc2C[C@H]1C [Compound 1, (5R,6R,7R)-5-(3,4-dihydroxyphenyl)-6,7-dimethyl-5,6,7,8-tetrahydronaphthalene-2,3-diol]
- Relative Activity value (%) (Rhizoctonia solani): 50%
- efficacy in preventing and controlling Puccinia sorghi in corn plants (in words) (Puccinia sorghi [2]): very good efficacy
- Relative Activity value (%) (Pseudomonas syringae): 14%
- Relative Activity value (%) (Puccinia sorghi [3]): 50%
- Relative Activity value (%) (Phytophthora infestans [4]): 25%
- Relative Activity value (%) (Pythium aphanidermatum): 100%
- average efficacy in preventing and controlling Puccinia triticina (Puccinia triticina; 200 ppm): 95.17%
- average efficacy in preventing and controlling Puccinia triticina (Puccinia triticina; 400 ppm): 97.06%

SMILES: COc1cc2c(cc1O)[C@@H](c1ccc(O)c(O)c1)[C@H](C)[C@H](C)C2 [Compound 2, 4-((1R,2R,3R)-7-hydroxy-6-methoxy-2,3-dimethyl-1,2,3,4-tetrahydronaphthalen-1-yl)benzene-1,2-diol]
- Relative Activity value (%) (Rhizoctonia solani): 14%
- Relative Activity value (%) (Pseudomonas syringae): 14%
- Relative Activity value (%) (Puccinia sorghi [3]): 50%
- Relative Activity value (%) (Pythium aphanidermatum): 20%
